From the supplement of paper PMC13380429

Experiments:
Details in all cases: 72 h
HepG2 [1] = experiment: drug sensitivity score (DSS) for viability; higher = more toxic; extreme values may be limits of the assay
Caco-2 [2] = experiment: as above
Calu-3 [3] = experiment: as above
U2OS [4] = experiment: as above
Vero E6 [5] = experiment: as above
HepG2 [6] = experiment: cell viability relative to DMSO; higher = less toxic
Caco-2 [7] = experiment: as above
Calu-3 [8] = experiment: as above
U2OS [9] = experiment: as above
Vero E6 [10] = experiment: as above
HepG2 [11] = experiment: relative viability EC50 (midpoint between 100% and the lowest measured viability); higher = less toxic
Caco-2 [12] = experiment: as above
Calu-3 [13] = experiment: as above
U2OS [14] = experiment: as above
Vero E6 [15] = experiment: as above

SMILES | drug sensitivity score (HepG2 [1]) | drug sensitivity score (Caco-2 [2]) | drug sensitivity score (Calu-3 [3]) | drug sensitivity score (U2OS [4]) | drug sensitivity score (Vero E6 [5]) | cell viability (HepG2 [6]; 1 nM) [%] | cell viability (HepG2 [6]; 10 nM) [%] | cell viability (HepG2 [6]; 100 nM) [%] | cell viability (HepG2 [6]; 1000 nM) [%] | cell viability (HepG2 [6]; 10000 nM) [%] | cell viability (Caco-2 [7]; 1 nM) [%] | cell viability (Caco-2 [7]; 10 nM) [%] | cell viability (Caco-2 [7]; 100 nM) [%] | cell viability (Caco-2 [7]; 1000 nM) [%] | cell viability (Caco-2 [7]; 10000 nM) [%] | cell viability (Calu-3 [8]; 1 nM) [%] | cell viability (Calu-3 [8]; 10 nM) [%] | cell viability (Calu-3 [8]; 100 nM) [%] | cell viability (Calu-3 [8]; 1000 nM) [%] | cell viability (Calu-3 [8]; 10000 nM) [%] | cell viability (U2OS [9]; 1 nM) [%] | cell viability (U2OS [9]; 10 nM) [%] | cell viability (U2OS [9]; 100 nM) [%] | cell viability (U2OS [9]; 1000 nM) [%] | cell viability (U2OS [9]; 10000 nM) [%] | cell viability (Vero E6 [10]; 1 nM) [%] | cell viability (Vero E6 [10]; 10 nM) [%] | cell viability (Vero E6 [10]; 100 nM) [%] | cell viability (Vero E6 [10]; 1000 nM) [%] | cell viability (Vero E6 [10]; 10000 nM) [%] | relative viability EC50 (HepG2 [11]) [µM] | relative viability EC50 (Caco-2 [12]) [µM] | relative viability EC50 (Calu-3 [13]) [µM] | relative viability EC50 (U2OS [14]) [µM] | relative viability EC50 (Vero E6 [15]) [µM]
NS(=O)(=O)c1cc2c(cc1Cl)NC(C1CC3C=CC1C3)NS2(=O)=O (stereo not given) [cyclothiazide] | 0 | 0 | 0 | 0 | 0 | 90.8 | 104 | 88.9 | 99.9 | 93.8 | 92.4 | 89 | 103 | 81.8 | 91.2 | 101 | 96.7 | 95.3 | 112 | 100 | 93.7 | 95.2 | 99.9 | 94.3 | 97.7 | 94.4 | 102 | 91.2 | 92.5 | 105 | > 10 | > 10 | > 10 | > 10 | > 10
O=c1ccc2ccc(O)c(O)c2o1 [daphnetin] | 3.3 | 0 | 0 | 0 | 0 | 102 | 105 | 87.3 | 87.5 | 82.1 | 105 | 105 | 104 | 107 | 90.5 | 101 | 111 | 102 | 99.9 | 110 | 111 | 108 | 101 | 102 | 99.4 | 106 | 100 | 98.3 | 93 | 101 | > 10 | > 10 | > 10 | > 10 | > 10
C[C@]1(COc2ccc(N3CCC(Oc4ccc(OC(F)(F)F)cc4)CC3)cc2)Cn2cc([N+](=O)[O-])nc2O1 [delamanid] | 0 | 0 | 0 | 0 | 0 | 96.5 | 97.8 | 92.6 | 99.5 | 104 | 103 | 96.9 | 103 | 90.5 | 94.3 | 93 | 98 | 103 | 91.9 | 102 | 105 | 98.2 | 103 | 98.3 | 102 | 104 | 102 | 101 | 102 | 99.8 | > 10 | > 10 | > 10 | > 10 | > 10
CC(C)=CCC/C(C)=C/CC/C(C)=C/CC[C@]1(C)CCc2cc(O)cc(C)c2O1 [delta-tocotrienol] | 0 | 0 | 0 | 0 | 0 | 90.7 | 85.3 | 98.6 | 91 | 97.1 | 99.3 | 99.1 | 81.7 | 97.1 | 105 | 94.6 | 102 | 93.2 | 101 | 113 | 97.5 | 99.8 | 98.2 | 102 | 97.9 | 107 | 93.1 | 104 | 96.9 | 108 | > 10 | > 10 | > 10 | > 10 | > 10
CC(=O)OCC(=O)[C@H]1CC[C@H]2[C@@H]3CCC4=CC(=O)CC[C@]4(C)[C@H]3CC[C@]12C [deoxycorticosterone-acetate] | 0 | 0 | 0 | 0 | 0 | 107 | 110 | 95.9 | 91.5 | 107 | 85.4 | 114 | 100 | 122 | 101 | 98.4 | 99.8 | 100 | 91.9 | 107 | 96.8 | 100 | 103 | 102 | 99.2 | 100 | 99.8 | 96.2 | 98.7 | 91.7 | > 10 | > 10 | > 10 | > 10 | > 10
CN(C)CCCSC(=N)N [dimaprit] | 0 | 0 | 0 | 0 | 0 | 99 | 106 | 99.1 | 104 | 93.2 | 99 | 102 | 93.9 | 96.3 | 97.4 | 109 | 103 | 109 | 99.1 | 96.7 | 98.5 | 103 | 95.1 | 96.2 | 96.8 | 99.9 | 98.8 | 103 | 100 | 96.2 | > 10 | > 10 | > 10 | > 10 | > 10
C[C@@H](O)[C@H]1C(=O)N2C(C(=O)O)=C(S[C@@H]3CN[C@H](CNS(N)(=O)=O)C3)[C@H](C)[C@H]12 [doripenem] | 0 | 0 | 0 | 0 | 0 | 104 | 106 | 91 | 99.9 | 96.8 | 103 | 98 | 95.2 | 92.3 | 107 | 93.1 | 85.6 | 84 | 95.1 | 94.4 | 95.6 | 94.6 | 95.1 | 95.2 | 94.7 | 104 | 104 | 97.3 | 99.4 | 97.3 | > 10 | > 10 | > 10 | > 10 | > 10
CCN(CC)CCOC(=O)C(c1ccccc1)C1CCCCC1 (stereo not given) [drofenine] | 2.6 | 0 | 0 | 0 | 0.1 | 93.7 | 87.5 | 86.6 | 86.9 | 87.8 | 102 | 96 | 99.3 | 88.2 | 111 | 107 | 110 | 109 | 97.3 | 98 | 102 | 99.1 | 100 | 98.2 | 102 | 103 | 110 | 100 | 107 | 85.8 | > 10 | > 10 | > 10 | > 10 | > 10
CCCCOc1ccc(C(=O)CCN2CCCCC2)cc1 [dyclonine] | 0 | 1.1 | 0 | 0 | 0 | 96.6 | 93.3 | 106 | 98 | 94.7 | 102 | 108 | 101 | 85.7 | 94 | 96 | 109 | 99.2 | 109 | 102 | 99.9 | 103 | 94.3 | 100 | 95.5 | 94.7 | 102 | 99 | 98.6 | 97.3 | > 10 | > 10 | > 10 | > 10 | > 10
Nc1nc(=O)n([C@@H]2CS[C@H](CO)O2)cc1F [emtricitabine] | 0.4 | 0 | 0 | 0 | 0 | 104 | 105 | 102 | 97.5 | 85.5 | 107 | 108 | 108 | 98.8 | 109 | 104 | 88.8 | 105 | 96.2 | 110 | 97.2 | 104 | 92.1 | 98 | 98.9 | 102 | 102 | 99.5 | 104 | 100 | > 10 | > 10 | > 10 | > 10 | > 10
OC[C@@H](O)[C@@H](O)CO [erythritol] | 0 | 0 | 0 | 0 | 0 | 108 | 116 | 100 | 97.1 | 98.9 | 94.1 | 101 | 97.9 | 91 | 100 | 102 | 97.9 | 112 | 97 | 98.7 | 94.8 | 98.1 | 97.8 | 99.6 | 97.7 | 105 | 102 | 101 | 102 | 98.1 | > 10 | > 10 | > 10 | > 10 | > 10
